13 compounds from patent US20260125378A2, “Heterocyclic Compounds” (BeOne Medicines I GmbH, priority 2023, published 2026) can be followed below.

Structures are written as SMILES. A value given as a limit tells only on which side of the number the result lay.

In general, IC50 refers to the concentration needed to halve the response being measured. A higher IC50 goes with lower potency.

The target in assay [1] is T1, Full length DGKζ (in-house protein M1-V929) (Homo sapiens, UniProt Q13574).
T1 construct: His (N); TEV site (N); made in house; host or cells: Sf9 insect cells (Bac-to-Bac baculovirus)
Briefly: Biochemical DGK IC50 assay (ADP-Glo, lipid micelle substrate), DGKζ. The conditions noted are these: 1 hour preincubation, 1 hour reaction, room temperature. Put shortly: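 Full-length human DGKζ (M1-V929, His-TEV tagged, Sf9 baculovirus-expressed) with DAG/PS lipid micelle substrate in octyl glucoside, at room temperature in 50 mM HEPES, 10 mM MgCl2, 0.01 mM CaCl2 buffer.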
In general terms: In ADP-Glo the light output rises with the ADP produced.

The target in assay [2] is T2, Full length DGKα (D21-10BG, SignalChem) (Homo sapiens, UniProt P23743).
T2 construct: Full length DGKα (D21-10BG, SignalChem); purchased SignalChem D21-10BG
Briefly: Biochemical DGK IC50 assay (ADP-Glo, lipid micelle substrate), DGKα. Particulars: 1 hour preincubation, 1 hour reaction, room temperature. Put shortly:
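Full-length human DGKα with DAG/PS lipid micelle substrate (in octyl glucoside buffer), reacted 1 h at room temperature in 50 mM HEPES, 10 mM MgCl2, 0.01 mM CaCl2, 0.1 mM Na3VO4, 0.01% BSA, 0.005% Tween-20. ADP formed read by ADP-Glo luminescence; IC50 from inhibition across increasing compound concentrations.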

T1 sequence (Q13574 1-929 isoform Q13574-4): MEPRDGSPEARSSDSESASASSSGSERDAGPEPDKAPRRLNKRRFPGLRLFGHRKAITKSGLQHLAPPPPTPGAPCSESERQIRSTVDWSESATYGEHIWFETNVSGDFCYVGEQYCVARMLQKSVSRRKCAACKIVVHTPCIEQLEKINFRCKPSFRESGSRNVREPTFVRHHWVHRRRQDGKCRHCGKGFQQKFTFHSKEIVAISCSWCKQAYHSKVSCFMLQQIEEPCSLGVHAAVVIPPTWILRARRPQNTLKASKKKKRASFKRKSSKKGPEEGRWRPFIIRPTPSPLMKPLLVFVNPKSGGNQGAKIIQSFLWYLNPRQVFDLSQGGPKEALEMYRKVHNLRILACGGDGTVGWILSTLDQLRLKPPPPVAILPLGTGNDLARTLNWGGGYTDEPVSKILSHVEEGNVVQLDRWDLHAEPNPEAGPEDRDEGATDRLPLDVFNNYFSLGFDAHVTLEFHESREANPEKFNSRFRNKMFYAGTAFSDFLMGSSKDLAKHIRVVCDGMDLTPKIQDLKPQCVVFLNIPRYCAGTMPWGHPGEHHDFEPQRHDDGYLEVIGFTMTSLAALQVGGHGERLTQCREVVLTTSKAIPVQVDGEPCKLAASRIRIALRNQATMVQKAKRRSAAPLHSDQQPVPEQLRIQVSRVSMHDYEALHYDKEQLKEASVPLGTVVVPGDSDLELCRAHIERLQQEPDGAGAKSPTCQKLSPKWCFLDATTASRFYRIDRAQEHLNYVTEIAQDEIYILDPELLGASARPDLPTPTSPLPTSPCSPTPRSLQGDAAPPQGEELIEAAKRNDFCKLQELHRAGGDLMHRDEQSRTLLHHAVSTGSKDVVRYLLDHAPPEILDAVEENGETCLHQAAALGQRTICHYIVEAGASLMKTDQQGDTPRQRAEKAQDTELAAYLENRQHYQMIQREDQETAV
T2 sequence (P23743 whole entry): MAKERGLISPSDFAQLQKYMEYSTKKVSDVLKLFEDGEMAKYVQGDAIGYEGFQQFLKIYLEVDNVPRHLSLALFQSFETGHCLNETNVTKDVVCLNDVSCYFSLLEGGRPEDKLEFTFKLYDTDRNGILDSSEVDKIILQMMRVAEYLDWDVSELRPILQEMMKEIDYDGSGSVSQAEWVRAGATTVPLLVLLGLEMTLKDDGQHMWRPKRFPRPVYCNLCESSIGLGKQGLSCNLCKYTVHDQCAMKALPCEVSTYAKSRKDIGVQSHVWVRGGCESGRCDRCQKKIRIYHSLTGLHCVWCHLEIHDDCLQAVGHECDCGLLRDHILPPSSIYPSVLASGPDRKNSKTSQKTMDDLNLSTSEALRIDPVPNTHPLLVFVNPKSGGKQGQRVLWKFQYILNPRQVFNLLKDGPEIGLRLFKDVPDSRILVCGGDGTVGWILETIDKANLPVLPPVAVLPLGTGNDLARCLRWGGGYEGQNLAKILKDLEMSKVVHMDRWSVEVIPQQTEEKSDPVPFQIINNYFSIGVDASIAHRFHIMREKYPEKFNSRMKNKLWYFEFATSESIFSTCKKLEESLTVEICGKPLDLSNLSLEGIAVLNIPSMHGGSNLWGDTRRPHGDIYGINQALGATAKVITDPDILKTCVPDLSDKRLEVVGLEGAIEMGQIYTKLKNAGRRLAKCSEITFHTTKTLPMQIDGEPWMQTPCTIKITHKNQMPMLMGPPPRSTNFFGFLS

As to `CCn1c(CC#N)nc2c(N3C[C@@H](C)N(C(C)c4ccnc5c4OCCC5(F)F)C[C@@H]3C)nc(=O)n(C)c21` (single isomer, unassigned) [Compound A103b], the IC50 was 0.052 µM in assay [1] and above 150 µM in assay [2].

Consider `CCn1c(CC#N)nc2c(N3C[C@@H](C)N(C(C)c4cc5c(cc4F)OC(C)(C)O5)C[C@@H]3C)nc(=O)n(C)c21` (single isomer, unassigned) [Compound A174b], for which the IC50 in assay [1] worked out at 0.069 µM; in assay [2], 30.6 µM.

With `CCn1c(CC#N)nc2c(N3C[C@@H](C)N(C(C)c4nc5c(cc4F)OCC(C)(C)O5)C[C@@H]3C)nc(=O)n(C)c21` (single isomer, unassigned) [Compound A161a], the IC50 in assay [1] came out at 0.024 µM; in assay [2] it was 71.8 µM.

For the compound `CCn1c(CC#N)nc2c(N3C[C@@H](C)N(C(C)c4cccc(N5CCOCC5)c4)C[C@@H]3C)nc(=O)n(C)c21` (stereo partly drawn) [Compound A141, 2-(6-((2S,5R)-2,5-dimethyl-4-(1-(3-morpholinophenyl)ethyl)piperazin-1-yl)-9-ethyl-3-methyl-2-oxo-3,9-dihydro-2H-purin-8-yl)acetonitrile], the concentration for half-maximal inhibition (IC50) is 1.29 µM in assay [1] and above 150 µM in assay [2].

With `CCn1c(CC#N)nc2c(N3C[C@@H](C)N(C(C)c4cccc(OC(C)C)c4)C[C@@H]3C)nc(=O)n(C)c21` (stereo partly drawn) [Compound A43, 2-(9-ethyl-6-((2S,5R)-4-(1-(3-isopropoxyphenyl)ethyl)-2,5-dimethylpiperazin-1-yl)-3-methyl-2-oxo-3,9-dihydro-2H-purin-8-yl)acetonitrile], the results for the IC50 in assay [1] and in assay [2] were 0.079 µM and 101 µM, respectively.

As for `CC(c1ccc2c(c1)OCCO2)N1C[C@H](C)N(c2nc(=O)n(C)c3c2nc(CC#N)n3C)C[C@H]1C` (single isomer, unassigned) [Compound A58b], the 50% inhibitory concentration (IC50) in assay [1] was determined as 1.66 µM; in assay [2], 90.8 µM.

As to `CC[C@@H]1CN(c2nc(=O)n(C)c3c2nc(CC#N)n3C)[C@@H](C)CN1C(C)c1ccc2c(c1)OC(C)(C)CO2` (single isomer, unassigned) [Compound A63b], the concentration for half-maximal inhibition (IC50) in assay [1] was determined as 0.022 µM; in assay [2], 7.4 µM.

In the case of `COC[C@H]1CN(C(C)c2ccc3c(c2)OC(C)(C)CO3)[C@H](C)CN1c1nc(=O)n(C)c2c1nc(CC#N)n2C` (single isomer, unassigned) [Compound A12b], the IC50 came to 0.057 µM in assay [1] and 27.4 µM in assay [2].

As to `CCn1c(CC#N)nc2c(N3C[C@@H](C)N(C(C)c4ccc5c(c4)OC(F)(F)O5)C[C@@H]3C)nc(=O)n(C)c21` (stereo partly drawn) [Compound A99, 2-(6-((2S,5R)-4-(1-(2,2-difluorobenzo[d][1,3]dioxol-5-yl)ethyl)-2,5-dimethylpiperazin-1-yl)-9-ethyl-3-methyl-2-oxo-3,9-dihydro-2H-purin-8-yl)acetonitrile], the IC50 in assay [1] was 0.128 µM; in assay [2] it was 55.6 µM.

As to `CC(c1ccc(F)cc1C(F)(F)F)N1C[C@H](C)N(c2cc(=O)n(C)c3[nH]c(CC#N)nc23)C[C@H]1C` (single isomer, unassigned) [Compound A9b], the IC50 was 0.169 µM in assay [1] and above 10 µM in assay [2].

Consider `CC[C@@H]1CN(c2nc(=O)n(CC)c3c2nc(CC#N)n3C)[C@@H](C)CN1C(C)c1ccc2c(c1)OC(C)(C)CO2` (single isomer, unassigned) [Compound A66b], for which the IC50 was found to be 0.001 µM in assay [1] and 6.86 µM in assay [2].

As for `Cc1cnc2ccc(C(C)N3C[C@H](C)N(c4nc(=O)n(C)c5c4nc(CC#N)n5C)C[C@H]3C)cc2n1` (single isomer, unassigned) [Compound A49b], the IC50 in assay [1] was 0.4 µM; in assay [2], above 150 µM.

Regarding `CCn1c(CC#N)nc2c(N3C[C@@H](C)N(C(C)c4ccc5c(c4)CN(C)C5=O)C[C@@H]3C)nc(=O)n(C)c21` (stereo partly drawn) [Compound A101, 2-(6-((2S,5R)-2,5-dimethyl-4-(1-(2-methyl-1-oxoisoindolin-5-yl)ethyl)piperazin-1-yl)-9-ethyl-3-methyl-2-oxo-3,9-dihydro-2H-purin-8-yl)acetonitrile], the results for the IC50 in assay [1] and in assay [2] were 4.23 µM and above 150 µM, respectively.
